From patent publication US8273766B2, “Tetrahydroisoquinoline compound” (Kowa Company, Ltd., priority 2007, dated 2012)

Target: T1, CCR3 (Cavia porcellus, UniProt Q9Z2I3)
T1 construct: from tissue; host or cells: peritoneal eosinophils of polymyxin B-treated male Hartley guinea pigs (Japan SLC, Inc.)
T1 sequence (Q9Z2I3 1-358): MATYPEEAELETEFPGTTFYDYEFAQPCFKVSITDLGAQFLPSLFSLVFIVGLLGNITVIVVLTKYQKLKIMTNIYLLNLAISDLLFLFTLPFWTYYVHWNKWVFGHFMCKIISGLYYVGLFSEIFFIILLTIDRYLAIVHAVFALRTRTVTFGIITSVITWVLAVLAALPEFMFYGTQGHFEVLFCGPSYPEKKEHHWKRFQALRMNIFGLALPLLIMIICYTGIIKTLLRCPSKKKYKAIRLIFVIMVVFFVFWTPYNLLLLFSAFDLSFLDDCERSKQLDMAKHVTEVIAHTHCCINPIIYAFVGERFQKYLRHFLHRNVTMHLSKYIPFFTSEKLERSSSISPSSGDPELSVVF
Assay: CCR3 antagonistic action: eotaxin-induced migration of guinea pig eosinophils (chemotaxis chamber)
Type: cell-based
Settings: inhibition of migration of guinea pig eosinophils toward guinea pig eotaxin 100 ng/mL; 30 min pretreatment at 37° C., 1 hour reaction
Protocol: Test Example 1 Test of a CCR3 Antagonistic Action
Guinea pig eosinophils were prepared with reference to a literature (Pinkus, Blood. 52 (1978) 127-134). That is, to a six-week old male Hartley guinea pig (Japan SLC, Inc.) was intraperitoneally injected polymyxin B (SIGMA) diluted with PBS (−) at 2 mg per animal once a week. After repeating the same operation four times for 24 hours, the abdominal cavity of each individual under anesthesia with diethyl ether was injected with 50 mL of PBS (−) containing 6 U/mL of heparin and 1 mM EDTA, and the liquid was collected. It was washed with PBS (−) containing 1 mM EDTA, and the cells were suspended in a Percoll solution having a specific density of 1.070 were centrifuged using a discontinuous Percoll gradient liquid to obtain an eosinophilic crude fraction. After washing with PBS (−), they were suspended in RPMI-1640 culture medium (SIGMA) containing 1% FCS, and cultured in a CO2 incubator overnight. Next day, the cells were harvested, a compound to be tested was added to the eosinophils suspended in the RPMI-1640 culture medium containing 0.1% BSA (bovine serum albumin, SIGMA), and then pretreatment was performed by leaving it to stand still at 37° C. for 30 minutes. A mixed liquid of guinea pig eotaxin (Chemical Synthesis Services) and the compound to be tested that had been prepared to be at a final concentration of 100 ng/mL was added into a lower chamber of 96-well chemotaxis chambers (Neuroprobe), and then a mixed liquid of 12.0×10^5 eosinophils per well and the compound to be tested was sequentially set in an upper chamber of a polycarbonate filter (Neuroprobe) having a pore size of 5 μm after completion of the treatment with polyvinyl pyrrolidone (PVP), and allowed to undergo a reaction in a CO2 incubator for 1 hour. After completion of the reaction, the filter was taken out, the cells were stained in a Diff-Quik stain kit (International Reagents Co., Ltd.), and the migrated eosinophils were microscopically counted. Five fields of view per well were counted, and an average value of the counts was taken as a count of migrated eosinophils.

Row | IC50 | SMILES
1 | 0.03 µM | CC(C)(C)c1ccc(CNCCN2Cc3ccccc3CC2Cc2ccc(F)cc2)cc1 (stereo not drawn) [Example 96, N-(4-tert-butylbenzyl)-2-[3-(4-fluorobenzyl)-3,4-dihydroisoquinolin-2(1H)-yl]ethanamine]
2 | 0.007 µM | CC(=O)c1cccc(CNCCN2Cc3ccccc3CC2Cc2ccc(F)cc2)c1 (stereo not drawn) [Example 106, N-(3-acetylbenzyl)-2-[3-(4-fluorobenzyl)-3,4-dihydroisoquinolin-2(1H)-yl]ethanamine]
3 | 0.001 µM | CS(=O)(=O)Nc1cccc(CNCCN2Cc3ccc(F)cc3CC2Cc2ccc(F)cc2)c1 (stereo not drawn) [Example 126, N-[3-(methanesulfonylamino)benzyl]-2-[6-fluoro-3-(4-fluorobenzyl)-3,4-dihydroisoquinolin-2(1H)-yl]ethanamine]
4 | 0.004 µM | CC(C)Nc1ccc(CNCCN2Cc3ccc(F)cc3CC2Cc2ccc(F)cc2)cc1 (stereo not drawn) [Example 138, 4-[[2-[6-fluoro-3-(4-fluorobenzyl)-3,4-dihydroisoquinolin-2(1H)-yl]ethylamino]methyl]-N-isopropylaniline]
5 | 0.04 µM | CCNc1ccc(CNCCN2Cc3ccc(F)cc3CC2Cc2ccc(F)cc2)cc1 (stereo not drawn) [Example 139, 4-[[2-[6-fluoro-3-(4-fluorobenzyl)-3,4-dihydroisoquinolin-2(1H)-yl]ethylamino]methyl]-N-ethylaniline]
6 | 0.004 µM | COCCNc1ccc(CNCCN2Cc3ccc(F)cc3CC2Cc2ccc(F)cc2)cc1 (stereo not drawn) [Example 150, 4-[[2-[6-fluoro-3-(4-fluorobenzyl)-3,4-dihydroisoquinolin-2(1H)-yl]ethylamino]methyl]-N-(2-methoxyethyl)aniline]
7 | 0.02 µM | CC(C)(O)c1ccc(CNCCN2Cc3ccc(F)cc3CC2Cc2ccc(F)cc2)cc1 (stereo not drawn) [Example 154, N-[4-(1-hydroxy-1-methylethyl)benzyl]-2-[6-fluoro-3-(4-fluorobenzyl)-3,4-dihydroisoquinolin-2(1H)-yl]ethanamine]
8 | 0.08 µM | CC(C)(C)c1ccc(CNCCN2Cc3ccc(F)cc3CC2Cc2ccc(Cl)cc2)cc1 (stereo not drawn) [Example 156, N-(4-tert-butylbenzyl)-2-[3-(4-chlorobenzyl)-6-fluoro-3,4-dihydroisoquinolin-2(1H)-yl]ethanamine]
9 | 0.025 µM | CS(=O)(=O)Nc1cccc(CNCCN2Cc3ccc(F)cc3CC2Cc2ccc(Cl)cc2)c1 (stereo not drawn) [Example 157, N-(3-methanesulfonylaminobenzyl)-2-[3-(4-chlorobenzyl)-6-fluoro-3,4-dihydroisoquinolin-2(1H)-yl]ethanamine]
10 | 0.025 µM | CC(C)Nc1ccc(CNCCN2Cc3cc(F)ccc3CC2Cc2ccc(F)cc2)cc1 (stereo not drawn) [Example 161, 4-[[2-[7-fluoro-3-(4-fluorobenzyl)-3,4-dihydroisoquinolin-2(1H)-yl]ethylamino]methyl]-N-isopropylaniline]
11 | 0.014 µM | Fc1ccc(CC2Cc3ccccc3CN2CCNCc2ccncc2)cc1 (stereo not drawn) [Example 171, N-(pyridin-4-yl)methyl-2-[3-(4-fluorobenzyl)-3,4-dihydroisoquinolin-2(1H)-yl]ethanamine]
12 | 0.002 µM | Fc1ccc(CC2Cc3cc(F)ccc3CN2CCNCc2ccncc2)cc1 (stereo not drawn) [Example 180, N-(pyridin-4-yl)methyl-2-[6-fluoro-3-(4-fluorobenzyl)-3,4-dihydroisoquinolin-2(1H)-yl]ethanamine]
